Columns and labels:
[1] = target: Serine/threonine-protein kinase D1 (Homo sapiens) (UniProt Q15139); assay: Inhibition of human PKD1 (2 to 912 residues) assessed as remaining enzyme activity at 50 uM after 30 mins by 33P-ATP filter-binding assay
[2] = target: MAP kinase-activated protein kinase 3 (Homo sapiens) (UniProt Q16644); assay: Inhibition of human MAPKAPK3 assessed as remaining enzyme activity at 50 uM after 30 mins by 33P-ATP filter-binding assay
[3] = target: Serine/threonine-protein kinase Chk2 (Homo sapiens) (UniProt O96017); assay: Inhibition of human CHK2 (5 to 543 residues) assessed as remaining enzyme activity at 50 uM after 30 mins by 33P-ATP filter-binding assay
[4] = target: Maternal embryonic leucine zipper kinase (Homo sapiens) (UniProt Q14680); assay: Inhibition of human MELK (2 to 651 residues) assessed as remaining enzyme activity at 50 uM after 30 mins by 33P-ATP filter-binding assay
[5] = target: NUAK family SNF1-like kinase 1 (Homo sapiens) (UniProt O60285); assay: Inhibition of human NUAK1 (2 to 660 residues) assessed as remaining enzyme activity at 50 uM after 30 mins by 33P-ATP filter-binding assay
[6] = target: Serine/threonine-protein kinase SIK3 (Homo sapiens) (UniProt Q9Y2K2); assay: Inhibition of human SIK3 (2 to 1369 residues) assessed as remaining enzyme activity at 50 uM after 30 mins by 33P-ATP filter-binding assay
[7] = target: Dual specificity protein kinase CLK2 (Homo sapiens) (UniProt P49760); assay: Inhibition of human CLK2 (138 to 499 residues) assessed as remaining enzyme activity at 50 uM after 30 mins by 33P-ATP filter-binding assay
[8] = target: Serine/threonine-protein kinase 3 (Homo sapiens) (UniProt Q13188); assay: Inhibition of human MST2 (2 to 491 residues) assessed as remaining enzyme activity at 50 uM after 30 mins by 33P-ATP filter-binding assay
[9] = target: Mitogen-activated protein kinase kinase kinase 7 (Homo sapiens) (UniProt O43318); assay: Inhibition of human TAK1 (1 to 303 residues) assessed as remaining enzyme activity at 50 uM after 30 mins by 33P-ATP filter-binding assay
[10] = target: Proto-oncogene tyrosine-protein kinase Src (Homo sapiens) (UniProt P12931); assay: Inhibition of human Src (1 to 536 residues) assessed as remaining enzyme activity at 50 uM after 30 mins by 33P-ATP filter-binding assay
[11] = target: Tyrosine-protein kinase Yes (Homo sapiens) (UniProt P07947); assay: Inhibition of human YES1 (1 to 543 residues) assessed as remaining enzyme activity at 50 uM after 30 mins by 33P-ATP filter-binding assay
[12] = target: Protein-tyrosine kinase 6 (Homo sapiens) (UniProt Q13882); assay: Inhibition of human BRK (1 to 451 residues) assessed as remaining enzyme activity at 50 uM after 30 mins by 33P-ATP filter-binding assay
[13] = target: Ephrin type-B receptor 4 (Homo sapiens) (UniProt P54760); assay: Inhibition of human EPHB4 (561 to 997 residues) assessed as remaining enzyme activity at 50 uM after 30 mins by 33P-ATP filter-binding assay
[14] = target: High affinity nerve growth factor receptor (Homo sapiens) (UniProt P04629); assay: Inhibition of human TRKA (441 to 760 residues) assessed as remaining enzyme activity at 50 uM after 30 mins by 33P-ATP filter-binding assay
[15] = Cell cycle arrest in human HL60 cells assessed as accumulation at G1 phase at 1 uM (reference value: 59 %); format: functional, cell-based; conditions: HL-60
[16] = Cell cycle arrest in human HL60 cells assessed as accumulation at G2 phase at 5 uM (reference value: 5 %); format: functional, cell-based; conditions: HL-60
[17] = Partition coefficient, logP of the compound in water/PBS buffer at 25 degC by OECD guidelines based method; format: physicochemical; conditions: water/PBS buffer; read-out: logP
[18] = target: CDK2/Cyclin A2 (Homo sapiens, UniProt P24941); assay: Inhibition of human Cdk2/cyclin A using histone H1 substrate after 30 mins by 33P-ATP filter-binding assay; format: protein-complex assay
[19] = target: CDK9/cyclin T1 (Homo sapiens, UniProt P50750); assay: Inhibition of human Cdk9/T1 using YSPTSPSYSPTSPSYSPTSPKKK peptide as substrate after 30 mins by 33P-ATP filter-binding assay; format: protein-complex assay
[20] = Stability in pH 6.8 buffer at 120 ug/ml after 8 hrs by RP-HPLC analysis; format: physicochemical; conditions: pH 6.8, 8 h
[21] = Stability in pH 7.4 buffer at 120 ug/ml after 8 hrs by RP-HPLC analysis; format: physicochemical; conditions: pH 7.4, 8 h
[22] = Stability in SGF solution at 120 ug/ml after 8 hrs by RP-HPLC analysis; format: physicochemical; conditions: simulated gi fluid
[23] = Stability in SIF solution assessed as reduction in compound AUC at 120 ug/ml after 8 hrs by RP-HPLC analysis; format: physicochemical; conditions: read-out: Drug degradation
[24] = Cytotoxicity against human MOLT4 cells assessed as cell growth inhibition after 48 hrs by MTT assay; format: functional; conditions: MOLT-4, 48 h
[25] = Cytotoxicity against human Hs578T cells assessed as cell growth inhibition after 48 hrs by MTT assay; format: functional; conditions: Hs-578T
[26] = Cytotoxicity against human SNB75 cells assessed as cell growth inhibition after 48 hrs by MTT assay; format: functional; conditions: SNB-75, 48 h
[27] = target: Dual specificity mitogen-activated protein kinase kinase 1 (Homo sapiens) (UniProt Q02750); assay: Inhibition of human MKK1 (2 to 393 residues) assessed as remaining enzyme activity at 50 uM after 30 mins by 33P-ATP filter-binding assay
[28] = target: Mitogen-activated protein kinase 10 (Homo sapiens) (UniProt P53779); assay: Inhibition of human JNK3 (40 to 422 residues) assessed as remaining enzyme activity at 50 uM after 30 mins by 33P-ATP filter-binding assay
[29] = target: Mitogen-activated protein kinase 14 (Homo sapiens) (UniProt Q16539); assay: Inhibition of human p38alpha MAPK (1-360 residues) assessed as remaining enzyme activity at 50 uM after 30 mins by 33P-ATP filter-binding assay
[30] = target: Mitogen-activated protein kinase 13 (Homo sapiens) (UniProt O15264); assay: Inhibition of human p38delta MAPK (1 to 365 residues) assessed as remaining enzyme activity at 50 uM after 30 mins by 33P-ATP filter-binding assay
[31] = target: 3-phosphoinositide-dependent protein kinase 1 (Homo sapiens) (UniProt O15530); assay: Inhibition of human PDK1 (52 to 556 residues) assessed as remaining enzyme activity at 50 uM after 30 mins by 33P-ATP filter-binding assay
[32] = target: Protein kinase C alpha type (Homo sapiens) (UniProt P17252); assay: Inhibition of human PKCalpha (1 to 672 residues) assessed as remaining enzyme activity at 50 uM after 30 mins by 33P-ATP filter-binding assay

Chain of Tyrosine-protein kinase Yes (Homo sapiens) (P07947 2-543 limits assumed): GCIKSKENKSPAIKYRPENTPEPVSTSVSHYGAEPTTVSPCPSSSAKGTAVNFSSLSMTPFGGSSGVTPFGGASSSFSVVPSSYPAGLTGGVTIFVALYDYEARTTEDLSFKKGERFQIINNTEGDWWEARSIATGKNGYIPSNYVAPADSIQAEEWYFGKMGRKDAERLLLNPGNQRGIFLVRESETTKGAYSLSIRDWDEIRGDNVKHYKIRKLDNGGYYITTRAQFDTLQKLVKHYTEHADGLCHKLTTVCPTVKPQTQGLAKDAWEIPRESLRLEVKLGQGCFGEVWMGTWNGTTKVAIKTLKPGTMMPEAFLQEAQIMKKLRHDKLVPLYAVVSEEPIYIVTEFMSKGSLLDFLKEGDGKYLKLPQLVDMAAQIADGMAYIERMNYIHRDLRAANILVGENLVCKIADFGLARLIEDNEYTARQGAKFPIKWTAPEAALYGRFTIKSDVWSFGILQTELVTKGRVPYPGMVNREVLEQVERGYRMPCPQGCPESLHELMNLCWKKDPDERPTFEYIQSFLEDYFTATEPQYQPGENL
Chain of NUAK family SNF1-like kinase 1 (Homo sapiens) (O60285 whole entry, the tested form may be a part): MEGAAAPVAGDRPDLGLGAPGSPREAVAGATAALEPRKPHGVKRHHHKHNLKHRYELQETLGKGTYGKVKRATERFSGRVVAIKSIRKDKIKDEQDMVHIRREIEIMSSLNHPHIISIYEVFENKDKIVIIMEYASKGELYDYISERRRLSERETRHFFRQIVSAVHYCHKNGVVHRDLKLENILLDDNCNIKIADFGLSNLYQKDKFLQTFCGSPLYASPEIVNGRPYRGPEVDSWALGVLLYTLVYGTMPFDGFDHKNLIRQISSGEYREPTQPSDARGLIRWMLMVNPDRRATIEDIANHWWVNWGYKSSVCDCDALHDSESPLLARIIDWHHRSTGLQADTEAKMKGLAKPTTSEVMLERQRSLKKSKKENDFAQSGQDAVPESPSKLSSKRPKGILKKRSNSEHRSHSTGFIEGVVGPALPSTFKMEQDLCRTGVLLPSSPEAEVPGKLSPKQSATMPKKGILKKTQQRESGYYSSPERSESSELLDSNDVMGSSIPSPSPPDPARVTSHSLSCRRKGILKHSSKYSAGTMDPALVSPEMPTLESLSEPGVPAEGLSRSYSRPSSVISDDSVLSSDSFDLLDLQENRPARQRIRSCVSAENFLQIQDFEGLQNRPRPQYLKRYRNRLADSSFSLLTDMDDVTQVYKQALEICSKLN
Chain of CDK9/cyclin T1 (O60563 whole entry): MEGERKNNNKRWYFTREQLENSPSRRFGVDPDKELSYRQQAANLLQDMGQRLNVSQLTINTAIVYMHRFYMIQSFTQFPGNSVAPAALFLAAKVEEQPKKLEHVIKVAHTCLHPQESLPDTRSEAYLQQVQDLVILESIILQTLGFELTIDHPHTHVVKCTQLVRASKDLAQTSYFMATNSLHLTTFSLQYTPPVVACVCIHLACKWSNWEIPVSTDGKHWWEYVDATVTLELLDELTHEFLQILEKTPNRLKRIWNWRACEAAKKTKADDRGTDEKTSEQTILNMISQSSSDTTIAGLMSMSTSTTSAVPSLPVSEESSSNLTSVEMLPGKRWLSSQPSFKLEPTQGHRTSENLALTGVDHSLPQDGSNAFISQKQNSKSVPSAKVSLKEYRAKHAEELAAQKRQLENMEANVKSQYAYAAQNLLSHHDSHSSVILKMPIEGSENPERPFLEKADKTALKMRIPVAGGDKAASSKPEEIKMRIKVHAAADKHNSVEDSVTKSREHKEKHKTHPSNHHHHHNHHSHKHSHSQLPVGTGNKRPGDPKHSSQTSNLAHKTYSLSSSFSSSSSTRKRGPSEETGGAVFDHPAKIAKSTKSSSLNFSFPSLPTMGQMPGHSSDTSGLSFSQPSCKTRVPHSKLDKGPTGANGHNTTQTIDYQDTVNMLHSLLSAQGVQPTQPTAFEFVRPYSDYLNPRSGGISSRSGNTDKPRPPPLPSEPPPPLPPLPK
Chain of CDK9/cyclin T1 (P50750 whole entry): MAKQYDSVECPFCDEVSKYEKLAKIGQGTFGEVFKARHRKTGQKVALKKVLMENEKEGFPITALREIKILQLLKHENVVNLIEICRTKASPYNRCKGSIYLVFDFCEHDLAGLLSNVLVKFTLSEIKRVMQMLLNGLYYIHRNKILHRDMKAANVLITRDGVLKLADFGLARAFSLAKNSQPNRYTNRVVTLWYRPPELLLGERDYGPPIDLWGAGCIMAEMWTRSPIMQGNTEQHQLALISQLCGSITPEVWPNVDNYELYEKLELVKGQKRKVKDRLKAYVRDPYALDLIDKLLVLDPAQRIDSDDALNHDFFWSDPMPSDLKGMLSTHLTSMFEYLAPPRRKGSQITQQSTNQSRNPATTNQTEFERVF
Chain of Serine/threonine-protein kinase 3 (Homo sapiens) (Q13188 whole entry, the tested form may be a part): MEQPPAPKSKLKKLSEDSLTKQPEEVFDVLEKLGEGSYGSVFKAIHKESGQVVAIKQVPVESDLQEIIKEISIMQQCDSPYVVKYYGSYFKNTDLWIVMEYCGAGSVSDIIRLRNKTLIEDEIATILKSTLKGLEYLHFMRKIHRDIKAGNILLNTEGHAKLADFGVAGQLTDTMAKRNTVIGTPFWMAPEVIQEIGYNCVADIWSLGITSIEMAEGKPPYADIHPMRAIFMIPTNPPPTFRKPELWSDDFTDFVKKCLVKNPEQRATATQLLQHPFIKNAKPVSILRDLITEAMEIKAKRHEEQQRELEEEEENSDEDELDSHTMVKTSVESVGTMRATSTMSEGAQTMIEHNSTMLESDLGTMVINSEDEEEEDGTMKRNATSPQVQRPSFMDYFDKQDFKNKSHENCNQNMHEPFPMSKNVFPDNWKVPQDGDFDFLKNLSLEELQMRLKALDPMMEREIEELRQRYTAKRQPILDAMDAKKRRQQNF
Chain of Serine/threonine-protein kinase Chk2 (Homo sapiens) (O96017 whole entry, the tested form may be a part): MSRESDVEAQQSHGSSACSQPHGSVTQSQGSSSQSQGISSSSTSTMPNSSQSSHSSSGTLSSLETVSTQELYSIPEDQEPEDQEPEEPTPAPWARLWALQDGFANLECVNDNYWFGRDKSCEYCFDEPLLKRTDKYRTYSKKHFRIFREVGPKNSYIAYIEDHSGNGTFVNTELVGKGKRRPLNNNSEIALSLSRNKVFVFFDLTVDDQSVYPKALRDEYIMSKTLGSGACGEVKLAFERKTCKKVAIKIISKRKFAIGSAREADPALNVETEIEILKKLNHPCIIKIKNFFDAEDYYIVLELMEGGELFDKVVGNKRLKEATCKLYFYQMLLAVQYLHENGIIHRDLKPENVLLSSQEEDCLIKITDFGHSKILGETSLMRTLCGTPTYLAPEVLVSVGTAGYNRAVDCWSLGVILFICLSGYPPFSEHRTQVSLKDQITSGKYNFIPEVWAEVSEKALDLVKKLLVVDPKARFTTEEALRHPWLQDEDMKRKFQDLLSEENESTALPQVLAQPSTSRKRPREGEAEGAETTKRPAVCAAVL
Chain of Protein-tyrosine kinase 6 (Homo sapiens) (Q13882 whole entry, looked up, the tested form may be a part): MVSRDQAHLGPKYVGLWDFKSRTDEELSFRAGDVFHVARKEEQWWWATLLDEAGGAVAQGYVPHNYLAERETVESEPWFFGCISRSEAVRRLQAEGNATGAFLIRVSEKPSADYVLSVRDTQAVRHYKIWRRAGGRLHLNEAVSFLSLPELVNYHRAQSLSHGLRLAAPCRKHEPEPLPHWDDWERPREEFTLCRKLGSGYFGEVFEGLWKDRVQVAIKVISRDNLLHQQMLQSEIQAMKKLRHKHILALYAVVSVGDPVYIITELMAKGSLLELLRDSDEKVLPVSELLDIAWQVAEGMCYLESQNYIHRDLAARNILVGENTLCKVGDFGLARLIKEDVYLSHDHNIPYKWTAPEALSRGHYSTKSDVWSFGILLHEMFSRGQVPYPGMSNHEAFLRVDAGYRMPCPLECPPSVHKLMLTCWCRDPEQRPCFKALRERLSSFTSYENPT
Chain of 3-phosphoinositide-dependent protein kinase 1 (Homo sapiens) (O15530 whole entry, the tested form may be a part): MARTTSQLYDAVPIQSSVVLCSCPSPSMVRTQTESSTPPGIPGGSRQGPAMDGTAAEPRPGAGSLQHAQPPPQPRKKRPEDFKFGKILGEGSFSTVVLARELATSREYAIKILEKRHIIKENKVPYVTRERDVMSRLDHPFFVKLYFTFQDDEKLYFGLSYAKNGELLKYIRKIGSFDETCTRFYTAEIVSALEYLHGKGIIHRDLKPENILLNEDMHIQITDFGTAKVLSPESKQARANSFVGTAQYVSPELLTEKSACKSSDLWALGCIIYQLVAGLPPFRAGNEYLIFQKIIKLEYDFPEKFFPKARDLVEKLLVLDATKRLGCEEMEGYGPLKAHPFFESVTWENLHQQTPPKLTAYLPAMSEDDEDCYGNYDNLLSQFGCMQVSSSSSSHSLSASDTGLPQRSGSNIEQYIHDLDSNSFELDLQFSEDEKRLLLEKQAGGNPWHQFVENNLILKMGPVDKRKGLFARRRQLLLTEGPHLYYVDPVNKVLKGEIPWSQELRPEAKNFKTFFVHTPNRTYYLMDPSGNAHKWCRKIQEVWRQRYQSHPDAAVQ
Chain of Dual specificity mitogen-activated protein kinase kinase 1 (Homo sapiens) (Q02750 whole entry, the tested form may be a part): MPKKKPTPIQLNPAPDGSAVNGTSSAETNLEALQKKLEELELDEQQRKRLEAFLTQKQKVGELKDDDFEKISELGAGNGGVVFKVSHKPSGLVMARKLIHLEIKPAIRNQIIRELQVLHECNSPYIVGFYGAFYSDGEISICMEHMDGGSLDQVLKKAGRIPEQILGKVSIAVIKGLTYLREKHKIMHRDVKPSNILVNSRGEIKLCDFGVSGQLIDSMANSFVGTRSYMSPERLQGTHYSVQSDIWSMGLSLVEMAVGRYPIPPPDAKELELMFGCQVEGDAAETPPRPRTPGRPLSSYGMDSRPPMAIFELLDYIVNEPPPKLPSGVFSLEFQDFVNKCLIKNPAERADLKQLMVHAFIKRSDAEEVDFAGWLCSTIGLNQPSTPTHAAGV

SMILES: Cc1cc(=O)c2c(O)cc(O)c([C@H]3CCN(C)C[C@H]3O)c2o1 [ROHITUKINE]
- Activity [1]: 75%
- Activity [2]: 83%
- Activity [3]: 60%
- Activity [4]: 80%
- Activity [5]: 52%
- Activity [6]: 28%
- Activity [7]: 45%
- Activity [8]: 46%
- Activity [9]: 70%
- Activity [10]: 61%
- Activity [11]: 57%
- Activity [12]: 93%
- Activity [13]: 84%
- Activity [14]: 89%
- Activity [15]: 34%
- Activity [16]: 11%
- logP [17]: 0.73
- IC50 [18]: 7.3 µM
- IC50 [19]: 300 nM
- Stability [20]: Stable
- Stability [21]: Stable
- Stability [22]: Stable
- degraded at 8 h, 120 ug/ml [23]: 2.42%
- GI50 [24]: 12 µM
- GI50 [25]: 20 µM
- GI50 [26]: 22 µM
- Activity [27]: 27%
- Activity [28]: 87%
- Activity [29]: 69%
- Activity [30]: 16%
- Activity [31]: 90%
- Activity [32]: 78%
